Test results published in patent US9457033B2, “Steroid alkaloids and uses thereof as antimicrobial agents against electron transport-deficient microbes and as potentiators for antimicrobial agents against pathogenic bacteria” (priority 2011, dated 2016).

Experiments:
SCV NewbouldΔhemB = experiment: Tomatidine susceptibility with supplemental hemin, spotted on agar (FIG. 1A); type: cell-based, Staphylococcus aureus; conditions: in the presence of supplemental hemin
Protocol: Normal (Newbould, CF07-L and CF1A-L), and SCV (NewbouldΔhemB (in the presence and absence of hemin), CF07-S (in the presence and absence of menadione) and CF1D-S) S. aureus strains were treated with various concentrations of tomatidine (4, 2, 1, 0.5, 0.25, 0.12 and 0.06 μg/ml) for 48 h in the Brain Hearth Infusion (BHI) medium at 35° C. and 10 μl samples were thereafter spotted on agar plated which were further incubated for 48 h before a picture was taken.

[1] = tested on: colonies isolated from S. aureus ATCC 29213 cultures exposed to gentamicin; experiment: Gentamicin susceptibility of colonies isolated from 24 h-cultures exposed to gentamicin; type: cell-based, Staphylococcus aureus
Protocol: Accordingly, colonies isolated from 24 h-cultures exposed to gentamicin were often normal-growing bacteria with a decreased susceptibility to gentamicin (MIC ranging from 1 to 4 μg/ml) or SCVs (MIC for gentamicin ranging from 4 to 8 μg/ml). […] From these time-kill experiments, isolated colonies obtained from cultures exposed to gentamicin combined or not with 8 μg/ml tomatidine were analyzed for their susceptibility to gentamicin. When ATCC 29213 was exposed to gentamicin alone, the emergence of numerous normal-growing isolates showing decreased susceptibility to gentamicin (MIC ranging from 1 to 4 mg/L) was easily detected.

[2] = colonies from 24 h-cultures exposed to gentamicin

Compound	susceptibility to tomatidine (SCV NewbouldΔhemB)	MIC of normal-growing isolates showing decreased susceptibility to gentamicin ([1]; ATCC 29213 exposed to gentamicin alone) [µg/mL]	MIC for gentamicin of SCVs [1, 2] [µg/mL]	MIC for gentamicin of normal-growing bacteria with decreased susceptibility [1, 2] [µg/mL]
C[C@H]1CC[C@]2(NC1)O[C@H]1C[C@H]3[C@@H]4CC[C@H]5C[C@@H](O)CC[C@]5(C)[C@H]4CC[C@]3(C)[C@H]1[C@@H]2C [Tomatidine, tomatidine]	abolished	–	–	–
gentamicin	–	1 to 4	4 to 8	1 to 4
